Measurements published in US20090005398A1, “Methods For The Treatment of Central Nervous System Tumors” (priority 2007, published 2009).
pIC50: −log10 of the molar value.

What was measured:
[1] = test system: H1299; assay: Cell-Titer-Glo cell proliferation; type: cell-based; conditions: Homo sapiens, NCI-H1299, lung, 72 h
Procedure: (§1) Exponentially growing cell lines of different tumor origins, cultured in appropriate media containing 10% fetal bovine serum at 37° C. in a 5% CO2 incubator were plated at low density (less than 2000 cells/well) in 96-well plates. Twenty four hours post-plating, cells were treated with different concentrations of compound ranging from 10 uM to 0.04 nM. Several wells were left untreated as a control. Seventy two hours post-treatment, cell numbers were determined using 50-100 ul per well of CellTiter-Glo (Promega #G7573). Plates were incubated at room temperature for 15 minutes and the chemiluminescent signal was read on the Victor V or Envison 2100 reader.
(§2) Concentration of compound that inhibited 50% of cell growth (IC50) was determined by 4 parameter fit of data using XLfit, (value of no cell control was subtracted from all samples for background). The Cell-Titer Glo data are shown in Table 3 below and represent a compilation of several different experiments, each performed using the general parameters outlined above, although minor variations may have been employed in some instances.

[2] = test system: A549-L; assay: Cell-Titer-Glo cell proliferation; type: cell-based; conditions: lung, 72 h
Procedure: as §1, §2

[3] = test system: MX-1; assay: Cell-Titer-Glo cell proliferation; type: cell-based; conditions: Homo sapiens, MX1, breast, 72 h
Procedure: as §1, §2

[4] = test system: cancer cell lines; assay: Methylene Blue, Cell-Titre Glo Growth or Multiple Cell Line cellular proliferation assays; type: cell-based
Procedure: (§3) Generally, exponentially growing cell lines of different tumor origins, cultured in appropriate media containing 10% fetal bovine serum at 37° C. in a 5% CO2 incubator were plated at low density (less than 2000 cells/well) in 96-well plates. Twenty four hours post-plating, cells were treated with different concentrations of compound ranging from 10 uM to 0.04 nM. Several wells were left untreated as a control. Seventy two hours post-treatment, cell numbers were determined using 100 μl per well of methylene blue (Sigma M9140) (0.5% in 50:50 Ethanol:water). Stain was incubated at room temperature for 30 minutes before plates were rinsed and dye solubilized in 1% N-lauroyl sarcosine, sodium salt, (Sigma L5125, in PBS) (further details of a methylene blue assay are described below). Plates were read on a microplate reader, measuring the OD at 620 nm.
as §1, with “Twenty four hours post-plating, cells were treated with different concentrations of compound ranging from 10 uM to 0.04 nM. Several wells were left untreated as a control.” left out, “reader. […]” for “reader.”

[5] = Protein binding to human plasma proteins by equilibrium dialysis; type: in vitro ADME; conditions: pH 7.4, equilibrium dialysis 6 h, 37° C.
Procedure: 96 Well Plate (High Throughput Dialysis): Stock solution of compound was spiked into human plasma at a target concentration of 2000 ng/mL. The mixture was inverted gently several times to insure homogeneity and triplicate 50 μL aliquots were collected to verify initial concentrations. Following assembly of dialysis plate (HTDialysis membrane strips, molecular weight cut off limit of 12,000-14,000 daltons), spiked plasma (150 μL) was placed in the donor compartment of the well and Phosphate Buffered Saline pH 7.4 (150 μL) in the receiver compartment. Eight wells were set up per compound and plasma type. Plate was placed in a 37° C. incubator on a plate shaker. Following the 6 h incubation period, the plate was removed. Single 50 μL aliquots from each donor and receiver compartment (per well) were analyzed.
Sample analysis was by LC/MS/MS (results reported as Drug Peak Area/Internal Standard Peak Area ratios). Protein binding assay can also be performed using dialysis cells instead of HT Dialysis 96 well plates. In Table 1, % Protein Binding, +=>98%; ++=95-98%: +++=<95%.

[6] = test system: RKO; assay: Methylene blue growth inhibition assay; type: cell-based; conditions: Homo sapiens, 72 h
Procedure: as §3
as §2, with “Concentration of test compound that” for “Concentration of compound that”, “background). The data are” for “background). The Cell-Titer Glo data are”, “in Table 1 below and” for “in Table 3 below and”
(§4) In one assay, normal human foreskin fibroblasts (HFF), human colon (HCT116, RKO), lung (H460, A549) and breast (MCF7) tumor cell lines were cultured in high glucose DMEM (Life Technologies) containing 10% fetal bovine serum (FBS) at 37° C. in a humidified 5% CO2, 95% air incubator. Cells were harvested using trypsin/EDTA, counted using a haemocytometer, and plated in 100 μL of culture media per well, at the following densities, in a 96-well tissue culture plate (Falcon 3075): HFF 5,000 cells/well, HCT116 3,000 cells/well, RKO 2,500 cells/well, H460 2,500 cells/well, A549 5,000 cells/well, MCF7 4,000 cells/well. The next day, compound was diluted in low glucose DMEM containing 100 μg/mL gentamicin, at twice the final required concentration, from 10 mM stock solutions in DMSO. 100 μL/well of these dilutions were added to the 100 μL of media currently in the assay plates. Medium containing 0.6% DMSO was added to control wells. The final concentration of DMSO in all wells was 0.3%. Cells were incubated at 37° C., 5% CO2 for 72 h. Medium was removed by aspiration. Cell biomass was estimated by staining cells with 80 μL per well methylene blue (Sigma M9140, 0.5% in 50:50 ethanol:water), and incubation at room temperature for 30-60 min. Stain was removed by aspiration and the plates rinsed by immersion in water, then air-dried. To release stain from the cells, 100 μL of solubilization solution was added (1% N-lauroyl sarcosine, Sodium salt, Sigma L5125, in PBS), and plates were shaken gently for about 30 min. Optical density at 620 nm was measured on a microplate reader. Percent inhibition of cell growth was calculated relative to vehicle treated control wells. Concentration of compound that inhibits 50% of cell growth (IC50) was interpolated using nonlinear regression (Levenberg-Marquardt) and the equation, y=Vmax*(1−(x/(K+x)))+Y2, where “K” was equal to the IC50.

[7] = test system: MCF7; assay: Methylene blue growth inhibition assay; type: cell-based; conditions: Homo sapiens, 72 h
Procedure: as §3
as §2, with “Concentration of test compound that” for “Concentration of compound that”, “background). The data are” for “background). The Cell-Titer Glo data are”, “in Table 1 below and” for “in Table 3 below and”
as §4

[8] = test system: A549; assay: Methylene blue growth inhibition assay; type: cell-based; conditions: Homo sapiens, 72 h
Procedure: as §3
as §2, with “Concentration of test compound that” for “Concentration of compound that”, “background). The data are” for “background). The Cell-Titer Glo data are”, “in Table 1 below and” for “in Table 3 below and”
as §4

[9] = test system: HFF (normal human foreskin fibroblasts); assay: Methylene blue growth inhibition assay; type: cell-based; conditions: Fibroblast, 72 h
Procedure: as §3
as §2, with “Concentration of test compound that” for “Concentration of compound that”, “background). The data are” for “background). The Cell-Titer Glo data are”, “in Table 1 below and” for “in Table 3 below and”
as §4

[10] = test system: H460; assay: Methylene blue growth inhibition assay; type: cell-based; conditions: Homo sapiens, NCI-H460, 72 h
Procedure: as §3
as §2, with “Concentration of test compound that” for “Concentration of compound that”, “background). The data are” for “background). The Cell-Titer Glo data are”, “in Table 1 below and” for “in Table 3 below and”
as §4

[11] = test system: HCT116; assay: Methylene blue growth inhibition assay; type: cell-based; conditions: Homo sapiens, HCT-116, 72 h
Procedure: as §3
as §2, with “Concentration of test compound that” for “Concentration of compound that”, “background). The data are” for “background). The Cell-Titer Glo data are”, “in Table 1 below and” for “in Table 3 below and”
as §4

pIC50 [1]: > 6.30
pIC50 [2]: > 6.30
pIC50 [4]: > 6.00
fraction unbound at 6 h, 2000 ng/mL [5]: > 0.05
pIC50 [7]: > 7.00
pIC50 [8]: > 7.00
pIC50 [10]: > 7.00
pIC50 [11]: > 7.00
Compound: C[C@@H](Oc1cc(-n2cnc3ccc(CN4CCN(C)CC4)cc32)sc1C(N)=O)c1ccccc1C(F)(F)F [Example 1, 5-{6-[(4-Methylpiperazin-1-yl)methyl]-1H-benzimidazol-1-yl}-3-{(1R)-1-[2-(trifluoromethyl)phenyl]ethoxy}thiophene-2-carboxamide]
pIC50 [3]: > 6.30
pIC50 [6]: > 7.00
pIC50 [9]: > 7.00
